From US12102658B2, “Tripeptide propylene oxide derivative and preparation method and application thereof” (SHENZHEN JIKANG PHARMACEUTICAL TECHNOLOGY CO., LTD, priority 2019, dated 2024)
Where two headings read alike, the source gives them in different places.

Legend:
[1] = molecular target: T1, human red blood cell 20S proteasome (Homo sapiens, UniProt P28074); assay: Proteasome inhibition activity (chymotrypsin-like activity, Suc-LLVY-AMC fluorescent substrate); format: biochemical; conditions: Suc-LLVY-AMC 50 μM, 37° C.
T1 construct: human red blood cell 20S proteasome; purchased Enzo; host or cells: purified from human red blood cells
Protocol: The present invention uses a fluorescent polypeptide substrate Suc-Leu-Leu-Val-Tyr-AMC (abbreviated as Suc-LLVY-AMC, Suc stands for succinyl group, AMC stands for 7-amide-4-methylcoumarin) to determine the chymotrypsin-like enzyme activity of the proteasome.
The proteasome used in the present invention is human red blood cell 20S proteasome, and the enzymes, fluorescent substrates and test buffers are all purchased from Enzo company. […]
The 20S proteasome is diluted with a buffer solution to a concentration of 2 ng/μL from 8 ng/μL, and the diluted proteasome solution is added to a 384-well fluorescence microplate, 4 μL each. […] A 360 nm/460 nm fluorescence microplate reader (BMG LABTECH POLARstar OPTIMA Microplate Reader) is used to test the fluorescence value.
The fluorescence values of the products obtained under the action of the drugs of different concentrations after subtracting the substrate are calculated. The IC50 concentration of the drug to inhibit the proteasome is calculated by the GraphPad Prism software.

U266B1 = assay: Cell strain inhibition activity (Promega single solution cell proliferation test kit), U266; format: cell-based; conditions: Homo sapiens, U-266; U266B1 cells, 24 h incubation with drug; read-out: IC50 concentration (nM) of the drugs to cytotoxicity, U266B1
Protocol: (§1) The test solution used in the present invention is a single solution cell proliferation test kit from Promega company; and the cells used are U266 and RPMI8226. The experimental system is 110 μL, containing 90 μL of cell suspension, 10 μL of test solution, and 10 μL of drug (inhibitor). The final concentration is 4.54×10^−8 M-1.77×10^−9 M, the last concentration is 0 M, the actual preparation concentration is 5×10^−7 M-1.95×10^−8 M, and the last concentration is 0 M. The specific experiment process is as follows:
(§2) After the cells are counted separately, dilution and preparation are performed so that the number of U266 is 1×10^4 cells/well, and the number of RPMI8226 is 1×10^4 cells/well.
(§3) 90 μL of cell suspension is added to each well of a 96-well fluorescence microplate, and incubated for 24 h. […] After the reaction is complete, 10 μL of test solution is added to each well and incubation is performed for 2-3 h. The absorbance is tested with a 490 nm fluorescence microplate reader (BMG LABTECH POLARstar OPTIMA Microplate Reader).
(§4) The absorbances of the products obtained under the action of the drugs of different concentrations after subtracting the substrate are calculated. The IC50 concentration (nM) of the drugs to cytotoxicity is calculated by the GraphPad Prism software.

RPMI8226 = assay: Cell strain inhibition activity (Promega single solution cell proliferation test kit), RPMI8226; format: cell-based; conditions: Homo sapiens, RPMI-8226; RPMI8226 cells, 24 h incubation with drug; read-out: IC50 concentration (nM) of the drugs to cytotoxicity, RPMI8226
Protocol: as §1, §2, §3, §4

[2] = system: CD138+ cells selected from the patients with multiple myeloma; assay: Primary cytotoxicity, CD138+ cells from patients with multiple myeloma; format: cell-based; conditions: Homo sapiens
Protocol: (§5) In the present invention, blood cells from patients with multiple myeloma and blood cells from healthy volunteers are used to test the toxicity of candidate compounds. The test solution is a single solution cell proliferation test kit from Promega company. The cells used are CD138+ cells selected from the patients with multiple myeloma and monocytes from the blood of the healthy volunteers. The experimental system is 110 μL, containing 90 μL of cell suspension, 10 μL of test solution, and 10 μL of drug (inhibitor). The final concentration is 4.54×10^−8 M 1.77×10^−9 M, the last concentration is 0 M, the actual preparation concentration is 5×10^−7 M-1.95×10^−8 M, and the last concentration is 0 M. The specific experiment process is as follows:
(§6) After the cells are counted separately, dilution and preparation are performed so that the number of CD138+ cells is 1×10^4 cells/well, and the number of monocytes is 1×10^4 cells/well.
as §3, §4

[3] = Primary cytotoxicity, monocytes from healthy volunteers; format: cell-based; conditions: human, primary blood monocytes from a healthy volunteer, 24 h incubation with drug
Protocol: as §5, §6, §3, §4

[4] = Patient 1, 24 h incubation with drug, read-out: IC50 concentration (nM) of the drugs to cytotoxicity, Patient 1
[5] = Patient 2, 24 h incubation with drug, read-out: IC50 concentration (nM) of the drugs to cytotoxicity, Patient 2
[6] = Healthy volunteer 3 (first line, r4), read-out: IC50 concentration (nM) of the drugs to cytotoxicity, Healthy volunteer 3
[7] = Healthy volunteer 3 (second line, r5), read-out: IC50 concentration (nM) of the drugs to cytotoxicity, Healthy volunteer 3 (second line)

melting point [°C]	Compound	further results
150 to 151	CSC[C@@H](NC(=O)c1cnc(C)s1)C(=O)N[C@H](CSC)C(=O)N[C@@H](CC(C)C)C(=O)[C@@]1(C)CO1 [Compound 45, N-2-methylthiazolyl-5-formyl-S-methyl-L-cysteinyl-S-methyl-L-cysteinyl-L-leucyl-methyloxirane]	
59.6 to 61.2	COC[C@H](NC(=O)[C@@H](CSC)NC(=O)c1cnccn1)C(=O)N[C@@H](CC(C)C)C(=O)[C@@]1(C)CO1 [Compound 38, N-pyrazinyl-2-formyl-S-methyl-L-cysteinyl-O-methyl-L-seryl-L-leucyl-methyloxirane]	IC50 [1]: > 2000 nM
59.8 to 60.3	COC[C@H](NC(=O)[C@@H](CSC)NC(=O)c1cc(Cl)ccc1Cl)C(=O)N[C@@H](CC(C)C)C(=O)[C@@]1(C)CO1 [Compound 36, N-2,5-dichlorophenyl-2-formyl-S-methyl-L-cysteinyl-O-methyl-L-seryl-L-leucyl-methyloxirane]	
46.1 to 47.6	COC[C@H](NC(=O)c1cnccn1)C(=O)N[C@H](CSC)C(=O)N[C@@H](Cc1ccccc1)C(=O)[C@@]1(C)CO1 [Compound 35, N-pyrazinyl-2-formyl-O-methyl-L-seryl-S-methyl-L-cysteinyl-L-phenylalanyl-methyloxirane]	
150 to 151	CSC[C@@H](NC(=O)c1cc(Cl)ccc1Cl)C(=O)N[C@H](CSC)C(=O)N[C@@H](Cc1ccccc1)C(=O)[C@@]1(C)CO1 [Compound 46, N-2,5-dichlorophenyl-2-formyl-S-methyl-L-cysteinyl-S-methyl-L-cysteinyl-L-phenylalanyl-methyloxirane]	
70.2 to 72.7	COC[C@H](NC(=O)c1cc(C)on1)C(=O)N[C@H](CSC)C(=O)N[C@@H](CC(C)C)C(=O)[C@@]1(C)CO1 [Compound 31, N-5-methylisoxazolyl-3-formyl-O-methyl-L-seryl-S-methyl-L-cysteinyl-L-leucyl-methyloxirane]	
47.7 to 49.1	COC[C@H](NC(=O)c1cc(C)on1)C(=O)NCC(=O)N[C@@H](CC(C)C)C(=O)[C@@]1(C)CO1 [Compound 50, N-5-methylisoxazolyl-3-formyl-O-methyl-L-seryl-glycyl-L-leucyl-methyloxirane]	IC50 [2, 4]: 10 nM; IC50 [2, 5]: 11 nM; IC50 at 24 h [3, 6]: > 2000 nM; IC50 at 24 h [3, 7]: > 2000 nM
149 to 150	CSC[C@@H](NC(=O)c1cc(C)on1)C(=O)N[C@H](CSC)C(=O)N[C@@H](Cc1ccccc1)C(=O)[C@@]1(C)CO1 [Compound 47, N-5-methylisoxazolyl-3-formyl-S-methyl-L-cysteinyl-S-methyl-L-cysteinyl-L-phenylalanyl-methyloxirane]	
58.4 to 59.8	CSC[C@@H](NC(=O)c1cc(C)on1)C(=O)NCC(=O)N[C@@H](CC(C)C)C(=O)[C@@]1(C)CO1 [Compound 54, N-5-methylisoxazolyl-3-formyl-S-methyl-L-cysteinyl-glycyl-L-leucyl-methyloxirane]	
49.7 to 51.2	COC[C@H](NC(=O)[C@@H](CSC)NC(=O)c1cnccn1)C(=O)N[C@@H](Cc1ccccc1)C(=O)[C@@]1(C)CO1 [Compound 41, N-pyrazinyl-2-formyl-S-methyl-L-cysteinyl-O-methyl-L-seryl-L-phenylalanyl-methyloxirane]	IC50 (U266B1): 160 nM; IC50 (RPMI8226): 55.3 nM
54 to 55	COC[C@H](NC(=O)c1cc(C)on1)C(=O)NCC(=O)N[C@@H](Cc1ccccc1)C(=O)[C@@]1(C)CO1 [Compound 51, N-5-methylisoxazolyl-3-formyl-O-methyl-L-seryl-glycyl-L-phenylalanyl-methyloxirane]	IC50 [2, 4]: 36 nM; IC50 [2, 5]: 52.6 nM

Further lines, the compound ahead of its results:

Compound	melting point [°C]	further results
COC[C@H](NC(=O)c1cc(Cl)ccc1Cl)C(=O)N[C@H](CSC)C(=O)N[C@@H](Cc1ccccc1)C(=O)[C@@]1(C)CO1 [Compound 33, N-2,5-dichlorophenyl-2-formyl-O-methyl-L-seryl-S-methyl-L-cysteinyl-L-phenylalanyl-methyloxirane]	50.7 to 52.3	
COC[C@H](NC(=O)[C@@H](CSC)NC(=O)c1cc(Cl)ccc1Cl)C(=O)N[C@@H](Cc1ccccc1)C(=O)[C@@]1(C)CO1 [Compound 39, N-2,5-dichlorophenyl-2-formyl-S-methyl-L-cysteinyl-O-methyl-L-seryl-L-phenylalanyl-methyloxirane]	51.2 to 52.7	
COC[C@H](NC(=O)c1cnccn1)C(=O)N[C@H](CSC)C(=O)N[C@@H](CC(C)C)C(=O)[C@@]1(C)CO1 [Compound 32, N-pyrazinyl-2-formyl-O-methyl-L-seryl-S-methyl-L-cysteinyl-L-leucyl-methyloxirane]	50 to 51	IC50 (U266B1): 13700 nM
COC[C@H](NC(=O)[C@@H](CSC)NC(=O)c1cc(C)on1)C(=O)N[C@@H](CC(C)C)C(=O)[C@@]1(C)CO1 [Compound 37, N-5-methylisoxazolyl-3-formyl-S-methyl-L-cysteinyl-O-methyl-L-seryl-L-leucyl-methyloxirane]	49.5 to 51.8	
CSC[C@@H](NC(=O)c1cnc(C)s1)C(=O)N[C@H](CSC)C(=O)N[C@@H](Cc1ccccc1)C(=O)[C@@]1(C)CO1 [Compound 49, N-2-methylthiazolyl-5-formyl-S-methyl-L-cysteinyl-S-methyl-L-cysteinyl-L-phenylalanyl-methyloxirane]	73 to 74	
CSC[C@@H](NC(=O)c1cnc(C)s1)C(=O)NCC(=O)N[C@@H](CC(C)C)C(=O)[C@@]1(C)CO1 [Compound 56, N-2-methylthiazolyl-5-formyl-S-methyl-L-cysteinyl-glycyl-L-leucyl-methyloxirane]		IC50 (RPMI8226): > 100 nM
CSC[C@@H](NC(=O)c1cnccn1)C(=O)N[C@H](CSC)C(=O)N[C@@H](Cc1ccccc1)C(=O)[C@@]1(C)CO1 [Compound 48, N-pyrazinyl-2-formyl-S-methyl-L-cysteinyl-S-methyl-L-cysteinyl-L-phenylalanyl-methyloxirane]		IC50 [1]: > 2000 nM
CSC[C@@H](NC(=O)c1cc(Cl)ccc1Cl)C(=O)N[C@H](CSC)C(=O)N[C@@H](CC(C)C)C(=O)[C@@]1(C)CO1 [Compound 42, N-2,5-dichlorophenyl-2-formyl-S-methyl-L-cysteinyl-S-methyl-L-cysteinyl-L-leucyl-methyloxirane]	163.1 to 164.5	
COC[C@H](NC(=O)CNC(=O)c1cc(C)on1)C(=O)N[C@@H](CC(C)C)C(=O)[C@@]1(C)CO1 [Compound 52, N-5-methylisoxazolyl-3-formyl-glycyl-O-methyl-L-seryl-L-leucyl-methyloxirane]		IC50 (RPMI8226): > 100 nM
COC[C@H](NC(=O)c1cnc(C)s1)C(=O)N[C@@H](COC)C(=O)N[C@@H](Cc1ccccc1)C(=O)[C@@]1(C)CO1 [Oprozomib, reference compound]		IC50 [2, 4]: 53 nM; IC50 [2, 5]: 70.9 nM; IC50 at 24 h [3, 6]: 598 nM; IC50 at 24 h [3, 7]: 807 nM
